From patent US20150051206A1, “COMPOUNDS AND COMPOSITIONS AS C-KIT KINASE INHIBITORS” (IRM LLC, priority 2011, published 2015)

Molecular target: T1, c-kit (Homo sapiens, UniProt P10721)
T1 construct: human Mo7e cells which endogenously express c-kit; endogenous in cells; host or cells: human Mo7e cells (promegakaryocytic leukemia line), stimulated with human recombinant SCF
Experiment: Mo7e cell proliferation assay (SCF dependent proliferation)
Format: cell-based
Conditions: Mo7e cells stimulated with human recombinant SCF, 48 hours
Experimental: Compounds of Formula (I) and Formula (II) provided herein were assayed to measure their capacity to inhibit c-kit and PDGFR kinases using the appropriate assay described below: c-Kit inhibition was evaluated using the Mo7e cell proliferation assay, and PDGFR inhibition was evaluated using the Rat A10 cell proliferation assay and the Human TG/HA-VSMC cell proliferation assay.
The compounds of Table 1 and Table 2 were tested for inhibition of SCF dependent proliferation using human Mo7e cells which endogenously express c-kit in a 384 well format. […] After 48 hours of incubation at 37° C., cell viability was measured by adding 25 uL of CellTiter Glo (Promega) to the cells and the luminescence was measured by a CLIPR CCD camera (Molecular Devices).
The IC50 value is given as that concentration of the test compound in question that provoke a response halfway between the baseline and maximum responses.

T1 sequence (P10721 26-976): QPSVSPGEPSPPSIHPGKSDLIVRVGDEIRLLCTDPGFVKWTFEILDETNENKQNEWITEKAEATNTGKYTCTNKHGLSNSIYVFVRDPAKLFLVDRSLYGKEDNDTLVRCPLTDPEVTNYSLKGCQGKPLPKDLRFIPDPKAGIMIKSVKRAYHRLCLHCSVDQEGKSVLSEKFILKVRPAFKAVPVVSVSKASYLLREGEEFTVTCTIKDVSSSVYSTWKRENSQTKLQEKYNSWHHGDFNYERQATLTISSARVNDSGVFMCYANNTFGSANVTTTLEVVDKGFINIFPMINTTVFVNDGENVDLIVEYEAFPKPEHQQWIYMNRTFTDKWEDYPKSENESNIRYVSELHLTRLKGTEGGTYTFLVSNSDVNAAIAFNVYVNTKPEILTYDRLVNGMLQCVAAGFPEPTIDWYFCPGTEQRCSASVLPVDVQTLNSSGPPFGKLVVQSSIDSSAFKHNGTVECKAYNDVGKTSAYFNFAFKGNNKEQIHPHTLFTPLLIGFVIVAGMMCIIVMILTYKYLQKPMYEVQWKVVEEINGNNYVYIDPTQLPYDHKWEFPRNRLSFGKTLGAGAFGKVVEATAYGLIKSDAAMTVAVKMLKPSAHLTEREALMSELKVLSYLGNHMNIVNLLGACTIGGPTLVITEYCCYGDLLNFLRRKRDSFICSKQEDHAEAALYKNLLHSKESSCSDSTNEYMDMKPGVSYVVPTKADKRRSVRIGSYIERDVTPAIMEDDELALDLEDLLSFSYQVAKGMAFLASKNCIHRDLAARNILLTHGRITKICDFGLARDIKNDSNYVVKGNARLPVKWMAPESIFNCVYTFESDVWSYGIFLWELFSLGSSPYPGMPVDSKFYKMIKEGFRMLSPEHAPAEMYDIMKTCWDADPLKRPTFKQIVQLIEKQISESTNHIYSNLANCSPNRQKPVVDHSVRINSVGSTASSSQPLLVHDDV

Row | IC50 (Table 1, 1% FBS) | Structure (SMILES) | further results
1 | 32 nM | Cc1nc(-c2nc(-c3ccc(C)c(NC(=O)c4cnc5ccccn45)c3)no2)c(C(F)(F)F)o1 [F22, N-(2-methyl-5-{5-[2-methyl-5-(trifluoromethyl)-1,3-oxazol-4-yl]-1,2,4-oxadiazol-3-yl}phenyl)imidazo[1,2-a]pyridine-3-carboxamide] | –
2 | 71 nM | Cc1ccc(Nc2noc(-c3cccc(N4CCN(C)CC4)c3)n2)cc1NC(=O)c1cnc2ccccn12 [F13, N-[2-methyl-5-({5-[3-(4-methylpiperazin-1-yl)phenyl]-1,2,4-oxadiazol-3-yl}amino)phenyl]imidazo[1,2-a]pyridine-3-carboxamide] | –
3 | – | Cc1ccc(-c2nc(-c3cccnc3Cl)no2)cc1NC(=O)c1cnc2ccccn12 [F44, N-{5-[3-(2-chloropyridin-3-yl)-1,2,4-oxadiazol-5-yl]-2-methylphenyl}imidazo[1,2-a]pyridine-3-carboxamide] | IC50 (Table 2, 20% FBS instead of 1% FBS (values marked *)): 236 nM
4 | – | Cc1cccc(-c2noc(-c3ccc(C)c(NC(=O)c4cnc5ccccn45)c3)n2)n1 [F28, N-(2-methyl-5-(3-(6-methylpyridin-2-yl)-1,2,4-oxadiazol-5-yl)phenyl)imidazo[1,2-a]pyridine-3-carboxamide] | IC50 (Table 2, 1% FBS): 252 nM
